Patent publication US20230357179A1, “RAF KINASE INHIBITORS AND METHODS OF USE THEREOF” (Deciphera Pharmaceuticals, LLC, priority 2021, published 2023)

Legend:
C-Raf kinase = target: T1, C-Raf kinase (Homo sapiens, UniProt P04049, Y340D/Y341D); assay: Biochemical assay for C-Raf.1 (coupled pyruvate kinase/lactate dehydrogenase); conditions: read-out: CRAF.1 IC50
T1 construct: Y340D,; GST (N); purchased Sigma
How it was run: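 NADH depletion at 340 nm monitored continuously for 6 h at 30° C, with rates taken over 4–5 h. The coupled pyruvate kinase/lactate dehydrogenase reaction used 1 mM ATP, 30.1 nM MEK substrate and 0.43 nM kinase at pH 7.5. IC50 was fitted sigmoidally from percent inhibition of serially diluted compound.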

Miapaca-2 cells = assay: MiaPaca-2 cell proliferation assay (1), resazurin, 96-well; assay type: cell-based; conditions: Homo sapiens, MIA PaCa-2, inhibition of cell proliferation
How it was run: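 Three thousand cells per well in DMEM with 10% FBS and 2.5% horse serum exposed to serially diluted compound in triplicate for 67-72 h at 37 °C, 5% CO2. Viability by resazurin (additional 5-6 h), fluorescence ex 540/em 600 nm; IC50 calculated.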

A375 cells = assay: A375 cell proliferation assay (1), resazurin, 96-well; assay type: cell-based; conditions: Homo sapiens, A-375, inhibition of cell proliferation
How it was run: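 Viability was read by resazurin fluorescence at 540 nm excitation and 600 nm emission, using a 440 μM solution added for 5–6 h at the end of culture. IC50 came from the curve fit.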

B-Raf (V600E) kinase = target: T2, B-Raf (V600E) kinase (Homo sapiens, UniProt P15056, V600E); assay: Biochemical assay for B-Raf (V600E).1 (coupled pyruvate kinase/lactate dehydrogenase); conditions: read-out: BRAF V600E.1 IC50
T2 construct: B-Raf (V600E) residues 416-766 with a; GST (N); purchased SignalChem
T2 sequence (P15056 416-766 V600E): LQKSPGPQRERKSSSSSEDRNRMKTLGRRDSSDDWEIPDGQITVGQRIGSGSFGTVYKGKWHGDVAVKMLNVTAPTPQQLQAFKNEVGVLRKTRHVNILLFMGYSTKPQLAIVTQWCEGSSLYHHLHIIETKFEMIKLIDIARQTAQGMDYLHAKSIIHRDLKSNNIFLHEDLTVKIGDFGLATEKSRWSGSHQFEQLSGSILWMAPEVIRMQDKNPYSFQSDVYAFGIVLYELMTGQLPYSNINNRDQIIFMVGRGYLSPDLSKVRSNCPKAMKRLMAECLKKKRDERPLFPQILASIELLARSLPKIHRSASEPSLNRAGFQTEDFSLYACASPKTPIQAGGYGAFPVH
How it was run: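 IC50 came from four-parameter sigmoidal fits of percent inhibition, using reaction rates over 3-4 h. Continuous A340 reading (6 h, 30 °C) of a pyruvate kinase/lactate dehydrogenase-coupled reaction: B-Raf V600E 0.03 nM, MEK 30.1 nM, ATP 1 mM, Tris pH 7.5, 1% DMSO.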

T1 sequence (P04049 307-648 Y340D/Y341D): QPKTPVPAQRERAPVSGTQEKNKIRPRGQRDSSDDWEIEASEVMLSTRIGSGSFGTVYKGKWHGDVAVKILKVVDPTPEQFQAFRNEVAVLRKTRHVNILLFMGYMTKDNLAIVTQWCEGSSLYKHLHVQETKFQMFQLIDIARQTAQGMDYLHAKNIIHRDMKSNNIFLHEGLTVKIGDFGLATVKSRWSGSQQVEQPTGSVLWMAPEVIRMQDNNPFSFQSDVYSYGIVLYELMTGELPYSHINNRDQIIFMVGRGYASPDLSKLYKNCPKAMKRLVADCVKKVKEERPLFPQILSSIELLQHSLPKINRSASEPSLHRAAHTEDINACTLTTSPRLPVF

Structure (SMILES)	IC50 (C-Raf kinase)	IC50 (Miapaca-2 cells)	IC50 (A375 cells)	IC50 (B-Raf (V600E) kinase)
CC(=O)Nc1cc(-c2cc(-c3cc(NC(=O)NCCC4(C)CC4)c(F)cc3C)cc(OCCO)n2)ccn1 [Example 33]	≤ 0.1 µM	0.1 to 0.5 µM	≤ 0.1 µM	≤ 0.1 µM
Cc1ccc(NC(=O)Nc2cnc(C(F)(F)F)s2)cc1-c1cc(OCCO)nc(N2CCOCC2)c1 [Example 43]	≤ 0.1 µM	0.1 to 0.5 µM	≤ 0.1 µM	≤ 0.1 µM
COC(C)(C)CCNC(=O)Nc1ccc(C)c(-c2cc(-c3ccnc(NC(C)=O)c3)n(C)c(=O)c2)c1 [Example 60]	0.1 to 0.5 µM	1 to 10 µM	1 to 10 µM	≤ 0.1 µM
Cc1cc(F)c(NC(=O)NCCC(C)(C)C#N)cc1-c1cccc(-c2cc(NC(=O)C3CC3)ncn2)c1 [Example 67]	≤ 0.1 µM	1 to 10 µM	1 to 10 µM	≤ 0.1 µM
CC(=O)Nc1cc(-c2cc(-c3cc(NC(=O)NCC45CC(F)(C4)C5)c(F)cc3C)cc(OCCO)n2)ccn1 [Example 52]	≤ 0.1 µM	1 to 10 µM	1 to 10 µM	≤ 0.1 µM
Cc1cc(F)c(NC(=O)NCCC2(C(F)(F)F)CC2)cc1-c1cc(N2CCOCC2)nc(N2CCOCC2)c1 [Example 23]	≤ 0.1 µM	1 to 10 µM	0.5 to 1 µM	≤ 0.1 µM
Cc1ccc(NC(=O)N2CCC(C(F)(F)F)C2)cc1-c1cccc(-c2cc(NC(=O)C3CC3)ncn2)c1 (stereo not drawn) [Example 73]	≤ 0.1 µM	1 to 10 µM	0.1 to 0.5 µM	≤ 0.1 µM
CC(=O)Nc1cc(-c2cc(-c3cc(NC(=O)NC4CC(C)(C)C4)c(F)cc3C)cc(OCCO)n2)ccn1 [Example 47]	≤ 0.1 µM	0.5 to 1 µM	≤ 0.1 µM	≤ 0.1 µM
Cc1cc(F)c(NC(=O)NCCC2(C(F)(F)F)CC2)cc1-c1cc(OCCO)nc(C2CCOCC2)c1 [Example 24]	≤ 0.1 µM	1 to 10 µM	0.1 to 0.5 µM	≤ 0.1 µM
CC(=O)Nc1cc(-c2cc(-c3cc(NC(=O)NCCC(C)(C)C#N)c(F)cc3C)cc(C3CC3)n2)ccn1 [Example 59]	≤ 0.1 µM	1 to 10 µM	1 to 10 µM	≤ 0.1 µM
Cc1cc(F)c(NC(=O)NCCC(C)(C)C#N)cc1-c1cccc(-c2ccnc(NC(=O)C3CC3)c2)c1 [Example 66]	≤ 0.1 µM	1 to 10 µM	1 to 10 µM	≤ 0.1 µM
Cc1ccc(NC(=O)N2CC[C@H](C(F)(F)F)C2)cc1-c1cncc(-c2cc(NC(=O)C3CC3)ncn2)c1 [Example 195]	≤ 0.1 µM	1 to 10 µM	0.1 to 0.5 µM	≤ 0.1 µM
CC(=O)Nc1cc(-c2cc(-c3cc(NC(=O)NCCC4(C)CC4)c(F)cc3C)cc(C3CC3)n2)ccn1 [Example 51]	≤ 0.1 µM	1 to 10 µM	1 to 10 µM	≤ 0.1 µM
CC(=O)Nc1cc(-c2cc(-c3cc(NC(=O)N[C@H]4C[C@](C)(F)C4)ccc3C)cc(OCCO)n2)ccn1 [Example 49]	≤ 0.1 µM	1 to 10 µM	1 to 10 µM	≤ 0.1 µM
COC1(CCNC(=O)Nc2cnc(C)c(-c3cccc(-c4cc(NC(=O)C5CC5)ncn4)c3)c2)CC1 [Example 84]	≤ 0.1 µM	1 to 10 µM	1 to 10 µM	≤ 0.1 µM
CC(=O)Nc1cc(-c2cc(-c3cc(NC(=O)Nc4ccc(C(F)(F)F)cc4)cnc3C)ccn2)ccn1 [Example 48]	≤ 0.1 µM	1 to 10 µM	1 to 10 µM	≤ 0.1 µM
Cc1ncc(NC(=O)NCCC(C)(C)F)cc1-c1ccnc(-c2ccnc(NC(=O)C3CC3)c2)c1 [Example 75]	≤ 0.1 µM	1 to 10 µM	1 to 10 µM	≤ 0.1 µM

Structure (SMILES)	IC50 (C-Raf kinase)	IC50 (Miapaca-2 cells)	IC50 (A375 cells)	IC50 (B-Raf (V600E) kinase)
CNC(=O)c1cc(-c2cncc(-c3cc(NC(=O)N4CC[C@H](C(F)(F)F)C4)c(F)cc3C)c2)ccn1 [Example 214]	0.1 to 0.5 µM	1 to 10 µM	1 to 10 µM	0.1 to 0.5 µM
CC(=O)Nc1cc(-c2cc(-c3cc(NC(=O)NCCC4(C(F)(F)F)CC4)c(F)cc3C)cc(C3CC3)n2)ccn1 [Example 54]	≤ 0.1 µM	1 to 10 µM	0.1 to 0.5 µM	≤ 0.1 µM
Cc1cc(F)c(NC(=O)NCCC2(C)CC2)cc1-c1cccc(-c2cc(NC(=O)C3CC3)ncn2)c1 [Example 65]	≤ 0.1 µM	1 to 10 µM	1 to 10 µM	≤ 0.1 µM
Cc1ccc(NC(=O)NCCC(C)(C)C)cc1-c1ccnc(N2CCOCC2)c1 [Example 18]	≤ 0.1 µM	1 to 10 µM	1 to 10 µM	≤ 0.1 µM
CNC(=O)c1cc(-c2cc(-c3cc(NC(=O)NC4CCCCC4)c(F)cc3C)cc(OCCO)n2)ccn1 [Example 205]	≤ 0.1 µM	1 to 10 µM	0.1 to 0.5 µM	≤ 0.1 µM
CC(=O)Nc1cc(-c2cc(-c3cc(NC(=O)NCCC4(C)CC4)c(F)cc3C)cc(C)n2)ccn1 [Example 55]	≤ 0.1 µM	1 to 10 µM	1 to 10 µM	≤ 0.1 µM
CNC(=O)c1cc(-c2cc(-c3cc(NC(=O)Nc4ccnc(C(C)(C)C#N)c4)ccc3C)ccn2)ccn1 [Example 69]	≤ 0.1 µM	1 to 10 µM	1 to 10 µM	≤ 0.1 µM
Cc1cc(F)c(NC(=O)NCCC2(C)CC2)cc1-c1cc(OCC(C)(C)O)nc(-c2ccncc2)c1 [Example 34]	≤ 0.1 µM	1 to 10 µM	1 to 10 µM	≤ 0.1 µM
COC(C)(C)CCNC(=O)Nc1ccc(C)c(-c2cc(-c3cnn(C)c3)nc(N3CCOCC3)c2)c1 [Example 38]	≤ 0.1 µM	1 to 10 µM	1 to 10 µM	≤ 0.1 µM
CC(=O)Nc1cc(-c2cc(-c3cc(NC(=O)NC4CCCCC4)c(F)cc3C)cc(OCCO)n2)ccn1 [Example 53]	≤ 0.1 µM	0.5 to 1 µM	≤ 0.1 µM	≤ 0.1 µM
Cc1cc(F)c(NC(=O)NCCC(C)(C)C#N)cc1-c1cc(N2CCOCC2)nc(N2CCOCC2)c1 [Example 22]	≤ 0.1 µM	1 to 10 µM	1 to 10 µM	≤ 0.1 µM
Cc1cc(F)c(NC(=O)NCCC2(C)CC2)cc1-c1cccc(-c2ccnc(NC(=O)C3CC3)c2)c1 [Example 64]	≤ 0.1 µM	1 to 10 µM	1 to 10 µM	≤ 0.1 µM
COC(=O)Nc1cc(-c2cc(-c3cc(NC(=O)NCCC4(C)CC4)c(F)cc3C)cc(OCCO)n2)ccn1 [Example 77]	≤ 0.1 µM	1 to 10 µM	≤ 0.1 µM	≤ 0.1 µM
Cc1ccc(NC(=O)N[C@H]2C[C@](C)(F)C2)cc1-c1cc(OCCO)nc(-c2ccnc(NC(=O)CN(C)C)c2)c1 [Example 50]	≤ 0.1 µM	1 to 10 µM	1 to 10 µM	≤ 0.1 µM
Cc1cc(F)c(NC(=O)NCCC2(C)CC2)cc1-c1ccnc(-c2ccnc3c2CC(=O)N3)c1 [Example 79]	≤ 0.1 µM	1 to 10 µM	1 to 10 µM	≤ 0.1 µM
CC(=O)Nc1cc(-c2cc(-c3cc(NC(=O)NCCC4(C)CC4)ccc3C)cc(N3CCOCC3)n2)ccn1 [Example 57]	≤ 0.1 µM	1 to 10 µM	0.1 to 0.5 µM	≤ 0.1 µM
